From US11634458B2, “Peptides and compositions for use in cosmetics and medicine” (LIPOTRUE, S.L., priority 2018, dated 2023)

Assays:
SH-SY5Y cells = experiment: Exocytosis levels and delay (fluorescent exocytosis reporter); format: cell-based, human; conditions: 0.01 mg/mL, 1 hour, PMA + ionomycin, vs non-treated cells
Experimental: The potential of said peptide Ac-SEQ ID NO: 8-NH2 to modulate the exocytosis of vesicles containing neurotransmitters from a neuroblastoma cell line was evaluated in vitro using SH-SY5Y cells, by fluorescence imaging using a Zeiss axiovert 200 inverted epifluorescence microscope with a 20× objective and a Xenon lamp.
SH-SY5Y cells (Sigma, USA) were cultured in T25 flasks in supplemented medium (DMEM/F12, Gibco, USA). Above 90% confluence, cells were trypsinized with 1 ml of 0.5% (v/v) Trypsin-EDTA. Next, 5 mL of said supplemented medium was added and cell concentration determined. Cells were seeded onto polyLysine-coated 12 mm-treated coverslips in 24 well-plates at 15×10^4 cells/well in supplemented medium (Gibco, USA) and incubated at regular conditions (37° C., 5% CO2). After 24 h cell seeding, cells were transfected with exocytosis reporter using Lipofectamine™ 3000 (Invitrogen, USA) following manufacturer's instructions. Reporter construct contained fusion protein made up of intraluminal-specific proteins and a pH-sensitive fluorescent protein.
For exocytosis monitorization, after 48 h of protein expression, cells were incubated with 0.01 mg/mL of Ac-SEQ ID NO: 8-NH2 peptide or 1 mg/mL of the benchmark acetyl hexapeptide-8 for 1 h at 37° C. and 5% CO2. Non-treated cells were used as basal control. […] Fluorescence imaging was done for the last 10 min of the stimulation protocol. Fluorescence signal of exocytosis reporter was monitored employing 483-512 nm excitation-filter and 525-530 nm emission-filter. […]
Non-treated cells were assayed in N=4 independent experiments with n=16 coverslips (483 cells measured), acetyl hexapeptide-8-treated cells in N=3 independent experiments with n=10 coverslips (328 cells measured) and Ac-SEQ ID NO: 8-NH2-treated cells in N=3 independent experiments with n=8 coverslips (240 cells measured). Cells were selected to individually monitor fluorescence intensity and time-course. Fluorescence peak evoked by ionomycin addition was used to quantify exocytosis by calculating the Area under the curve (AUC) using GraphPad software. Two parameters were defined and analyzed: • Exocytosis levels: For individual cells, total peak area was obtained from AUC analysis and was normalized by the baseline that was defined as fluorescence intensity 3-cycles before lonomycin injection. • Exocytosis delay: For individual cells, response time (min) was obtained from AUC analysis as time frame between lonomycin injection (Y) and initiation of peak (firstX).
Fluorescence values were further normalized as percentage change to non-treated cells on each experiment as: (exocytosis level of treated cells/exocytosis levels non-treated cells)×100 and (response time of treated cells/response time of non-treated cells)×100. […]

[1] = tested on: human skeletal muscle myocytes; experiment: Gene expression modulation in skeletal muscle human myocytes (RTqPCR contractility gene panel); format: cell-based; conditions: vs basal control
Experimental: Said peptides were tested to evaluate their capacity to modulate the expression of several genes related with muscle contraction and relaxation in human skeletal muscle myocytes (Lodish H, Berk A, Zipursky S L, et al. (2000), Molecular Cell Biology, 4th edition; Section 18.3 Myosin: The Actin Motor Protein, Nueva York, W. H. Freeman; Kuo, I Y, & Ehrlich, B E (2015), Signaling in Muscle Contraction, Cold Spring Harbor Perspectives in Biology, 7(2); RAPSN receptor associated protein of the synapse [Homo sapiens (human)], Gene ID in NCBI 5913; Blake D J, Tinsley J M, Davies K E (1996), Utrophin: a structural and functional comparison to dystrophin, Brain Pathol., 6(1):37-47; Barik A, Lu Y, Sathyamurthy A, et.al. (2014), LRP4Is Critical for Neuromuscular Junction Maintenance, The Journal of Neuroscience, 34(42), 13892-13905; Kim N, Stiegler A L, Cameron T O, Hallock P T, et.al. (2008), Lrp4 is a Receptor for Agrin and Forms a Complex with MuSK, Cell, 135(2), 334-342; Mahavadi S, Nalli A, Kumar D, et.al. (2014), Increased expression of caveolin-1 is associated with upregulation of the RhoA/Rho kinase pathway and smooth muscle contraction in diabetes (1110.11), The FASEB Journal, 28:1_supplement)). To that end, a contractility smart data gene panel was designed. Said contractility smart data gene panel analyses the expression of the genes related with muscular contraction and relaxation included in table 5.
Briefly, human skeletal muscle myoblasts were seeded in duplicate in 12-well culture plates at a density of 1×10^5 cells/well and maintained at standard culture conditions (37° C., 95% humidity, 5% CO2) for 48-72h. Myoblast differentiation to myocyte was then induced with specific differentiation media (SKM-D medium+1% Antibiotic-Antimycotic) and monitored for 7 more days. Differentiated cells were treated with 0.05 mg/mL of peptide Ac-SEQ ID NO: 5-NH2; or with 0.1 mg/mL of peptide Ac-SEQ ID NO: 10-NH2 for 24 hours; or with 0.05 and 0.5 mg/mL of peptide Ac-SEQ ID NO: 8-NH2 for 6h; or with 0.5 mg/mL of peptide Ac-SEQ ID NO: 8-NH2 for 24 h. Untreated cells were used as basal control. Cells were then lysed for RNA extraction with a RNA purification commercial kit following manufacturer instructions (RNeasy mini kit, Qiagen, Netherlands). RNA was then quantified by nanodrop, adjusted in concentration and processed for retrotranscription to cDNA using a commercially available kit (High-Capacity cDNA Reverse Transcription kit, Thermofisher Scientific, USA). Resulting cDNA was used to perform a RTqPCR (Real Time Quantitative Polymerase Chain Reaction) using taqman technology and a panel of probes designed to target the specific genes related to muscle contractility mentioned in table 4.

With “Ac-His-Ala-Leu-Arg-Phe-Trp-NH2 [Ac-SEQ ID NO: 8-NH2]” the “change of exocytosis levels” value (SH-SY5Y cells) was −14%, the “exocytosis response time delay” value (SH-SY5Y cells) was 24% and the CACNB1 gene expression ([1]; 0.05 mg/mL, 6 hours) was “downregulation”. For the same substance, the LRP4 gene expression ([1]; 0.05 mg/mL, 6 hours) was “downregulation”, the MYH1 gene expression ([1]; 0.05 mg/mL, 6 hours) was “downregulation” and the UTRN gene expression ([1]; 0.05 mg/mL, 6 hours) was “downregulation”. The ACTA1 gene expression ([1]; 0.5 mg/mL, 6 hours) was “downregulation”, the CALM3 gene expression ([1]; 0.5 mg/mL, 6 hours) was “downregulation” and the CAV1 gene expression ([1]; 0.5 mg/mL, 6 hours) was “downregulation”. For the same substance, the SCN3A gene expression ([1]; 0.5 mg/mL, 6 hours) was “downregulation”, the TNNC1 gene expression ([1]; 0.5 mg/mL, 6 hours) was “downregulation” and the ATP2A gene expression ([1]; 0.5 mg/mL, 24 hours) was “upregulation”. For the same substance, the RAPSN gene expression ([1]; 0.5 mg/mL, 24 hours) was “downregulation”.
